Results as given in US8889621B2, “Inhibiting binding of FGF23 to the binary FGFR-Klotho complex for the treatment of hypophosphatemia” (New York University, priority 2009, dated 2014).
Like-named read-outs stand apart in the source and are kept apart here. Peptide text beside a SMILES is read from it.

B1: FGF23^180-251: 72-amino acid C-terminal tail of human FGF23 (S180 to I251), expressed in E. coli (protein, listed as Homo sapiens)
chain: SAEDDSERDPLNVLKPRARMTPAPASCSQELPSAEDNSPMASDPLGVVRGGRVNTHAGGTGPEGCRPFAKFI
B2: FGF23^28-251: human FGF23 (A28 to I251), bioactive full-length ligand expressed in E. coli (protein, listed as Homo sapiens)
chain: ASPLLGSSWGGLIHLYTATARNSYHLQIHKNGHVDGAPHQTIYSALMIRSEDAGFVVITGVMSRRYLCMDFRGNIFGSHYFDPENCRFQHQTLENGYDVYHSPQYHFLVSLGRAKRAFLPGMNPPPYSQFLSRRNEIPLIHFNTPIPRRHTRSAEDDSERDPLNVLKPRARMTPAPASCSQELPSAEDNSPMASDPLGVVRGGRVNTHAGGTGPEGCRPFAKFI

Tested on: opossum kidney cell line OKP
Assay type: cell-based
Settings: for effect on phosphate uptake when applied alone: 500 nM
Description: The effects of FGF23 proteins/peptides on sodium-coupled phosphate uptake were studied in the opossum kidney cell line OKP (Miyauchi et al., “Stimulation of transient elevations in cytosolic Ca2+ is related to inhibition of Pi transport in OK cells,” Am J Physiol 259(3 Pt 2):[…]-493 (1990), which is hereby incorporated by reference in its entirety). The cell line has many characteristics of renal proximal tubule epithelium, including sodium gradient-dependent phosphate transport and sensitivity to parathyroid hormone (Miyauchi et al., “Stimulation of transient elevations in cytosolic Ca2+ is related to inhibition of Pi transport in OK cells,” Am J Physiol 259(3 Pt 2):[…]-493 (1990), which is hereby incorporated by reference in its entirety). OKP cells also express FGFR1-4 and Klotho (see next methods section). OKP cells were grown in culture as described previously (Hu et al., “Dopamine Acutely Stimulates Na+/H+ Exchanger (NHE3) Endocytosis Via Clathrin-coated Vesicles: Dependence on Protein Kinase A-mediated NHE3 Phosphorylation,” J Biol Chem 276(29):26906-26915 (2001), which is hereby incorporated by reference in its entirety). Cells grown in 24-well plates were stimulated for 4 h with FGF23^28-251 (0.5 to 1 nM), FGF23^180-251 (500 nM), FGF23^180-205 (500 nM), or mixtures of FGF23^28-251 (1 nM) with either FGF23^180-251 (1 to 500 nM) or FGF23^180-205 (1 to 500 nM). The 1 nM concentration of FGF23^28-251 was chosen for competition experiments with FGF23 C-terminal peptides because at this concentration, half-maximum inhibition of phosphate uptake is reached. After stimulation, the cells were rinsed with Na^+-free solution followed by 5 min incubation with uptake solution containing 100 μM KH2^32PO4 (2 mCi/ml, Perkin Elmer). The reaction was stopped by aspiration of uptake solution and washing cells with ice-cold stop solution (10 mM HEPES pH 7.4, 140 mM NaCl, 1 mM MgCl2). Each transport reaction was performed in triplicates.

| Molecule | effect on phosphate uptake when applied alone (4 h) | IC50 (4 h) [nM] | antagonism of FGF23 inhibition of phosphate uptake (FGF23^28-251 1 nM, 4 h stimulation) | IC50 (4 h stimulation, read-out: concentration at which half-maximum inhibition of phosphate uptake is reached) [nM] |
| --- | --- | --- | --- | --- |
| CSCC[C@H](NC(=O)[C@H](CCCNC(=N)N)NC(=O)[C@H](C)NC(=O)[C@H](CCCNC(=N)N)NC(=O)[C@@H]1CCCN1C(=O)[C@H](CCCCN)NC(=O)[C@H](CC(C)C)NC(=O)[C@@H](NC(=O)[C@H](CC(N)=O)NC(=O)[C@H](CC(C)C)NC(=O)[C@@H]1CCCN1C(=O)[C@H](CC(=O)O)NC(=O)[C@H](CCCNC(=N)N)NC(=O)[C@H](CCC(=O)O)NC(=O)[C@H](CO)NC(=O)[C@H](CC(=O)O)NC(=O)[C@H](CC(=O)O)NC(=O)[C@H](CCC(=O)O)NC(=O)[C@H](C)NC(=O)[C@@H](N)CO)C(C)C)C(=O)N[C@H](C(=O)N1CCC[C@H]1C(=O)N[C@@H](C)C(=O)N1CCC[C@H]1C(=O)N[C@@H](C)C(=O)N[C@@H](CO)C(=O)O)[C@@H](C)O [FGF23^180-205] (H-SAEDDSERDPLNVLKPRARMTPAPAS-OH; N-terminus and C-terminus assumed) | neither of the two FGF23 C-terminal peptides altered phosphate uptake | 100 to 500 | similar, albeit less potent antagonistic effect | – |
| B1 | neither of the two FGF23 C-terminal peptides altered phosphate uptake | – | – | – |
| B2 | – | – | – | 1 |
